Source: patent US20120142771A1, “BIPHENYLACETAMIDE DERIVATIVE” (Dainippon Sumitomo Pharma Co., Ltd., priority 2008, published 2012)

Assays:
[1] = system: maximum electroshock seizure (MES) model; assay: Maximum electroshock seizure (MES) model test; assay type: in vivo, mice; conditions: Slc: ddY male mice, 3 per group, electrical stimulation 1 hour after administration, inhibition of hind limb extension; for responders at 100 mg/kg / responders at 50 mg/kg: Mus musculus, po, 1 h, read-out: MES (positive number/tested number) (converted)
Excerpt: In order to evaluate the antiepileptic activity of each drug, maximum electroshock seizure (MES) model, subcutaneously pentetrazol-injected model (scPTZ), and amygdala kindling model in rats were used because they show a good clinical prediction.
Test 1: Test with Maximum Electroshock Seizure (MES) Model
Test 1 evaluates the anticonvulsant action of medicaments. Animal model used herein represents the clinical phenotypes of generalized tonic seizure and secondarily generalized tonic-clonic seizure. Test compounds (50 or 100 mg/kg) were orally administered to Slc: ddY male mice (3 mice in each group, body weight 20-30 g). After an hour of administration, their corneas were electrically stimulated (60 Hz, 25 mA, 0.2 second) to induce tonic convulsion (tonic extensor in their hind limbs). […] To the control mice, 0.5% tragacanth solution or 0.5% methylcellulose solution was administered.

[2] = system: subcutaneously pentetrazol-injected model (scPTZ); assay: Subcutaneously pentetrazol-injected model (scPTZ) test; assay type: in vivo, mice; conditions: Slc: ddY male mice, 3 per group, pentetrazol 85 mg/kg s.c. after 1 hour, observed 30 minutes for clonic convulsion; for responders at 100 mg/kg / responders at 50 mg/kg: Mus musculus, po, 1 h, read-out: scPTZ (positive number/tested number) (converted)
Excerpt: In order to evaluate the antiepileptic activity of each drug, maximum electroshock seizure (MES) model, subcutaneously pentetrazol-injected model (scPTZ), and amygdala kindling model in rats were used because they show a good clinical prediction. […] Test with Subcutaneously Pentetrazol-Injected Model (scPTZ) Similar to Test 1, Test 2 evaluates the anticonvulsant action of medicaments. However, unlike Test 1, animal model used herein represents the clinical phenotypes of generalized absence seizure and myoclonic seizure. Test compounds (50 or 100 mg/kg) were orally administered to Slc: ddY male mice (3 mice in each group, body weight 20-30 g). After an hour, pentetrazol (85 mg/kg) was subcutaneously administered. […] To the control mice, 0.5% tragacanth solution or 0.5% methylcellulose solution was administered.

Compound	MES (positive number/tested number) ([1]; 50 mg/kg oral)	responders at 100 mg/kg ([1]; 100 mg/kg oral) [%]	responders at 100 mg/kg ([2]; 100 mg/kg oral) [%]	MES (positive number/tested number) ([1]; 100 mg/kg oral)	scPTZ (positive number/tested number) ([2]; 100 mg/kg oral)	scPTZ (positive number/tested number) ([2]; 50 mg/kg oral)	responders at 50 mg/kg ([1]; 50 mg/kg oral) [%]	responders at 50 mg/kg ([2]; 50 mg/kg oral) [%]
NC(=O)C(O)c1ccccc1-c1ccccc1F (single isomer, unassigned) [Example 213, 2-(2′-Fluorobiphenyl-2-yl)-2-hydroxyacetamide]	0/3	100	33.3					
NC(=O)C(O)c1ccccc1-c1ccccc1F (single isomer, unassigned) [Example 214, 2-(2′-Fluorobiphenyl-2-yl)-2-hydroxyacetamide]	2/3			3/3	1/3			
NC(=O)C(O)c1ccccc1-c1cc(F)cc(Cl)c1 (single isomer, unassigned) [Example 217, 2-(3′-Chloro-5′-fluorobiphenyl-2-yl)-2-hydroxyacetamide]	2/3				3/3	1/3		
NC(=O)C(O)c1ccccc1-c1cc(F)cc(Cl)c1 (single isomer, unassigned) [Example 218, 2-(3′-Chloro-5′-fluorobiphenyl-2-yl)-2-hydroxyacetamide]	1/3	100			2/3	1/3		
NC(=O)C(O)c1ccccc1-c1ccccc1Cl (single isomer, unassigned) [Example 220, 2-(2′-chlorobiphenyl-2-yl)-2-hydroxyacetamide]		100	100				100	33.3
CNC(=O)Cc1ccccc1-c1ccc(C(F)(F)F)cc1 [Example 2, N-methyl-2-[4′-(trifluoromethyl)biphenyl-2-yl]acetamide]		100	0				100	
CN(C)C(=O)Cc1ccccc1-c1ccc(C(F)(F)F)cc1 [Example 3, N,N-dimethyl-2-[4′-(trifluoromethyl)biphenyl-2-yl]acetamide]		100	33.3				100	
NC(=O)Cc1ccccc1-c1cccc(C(F)(F)F)c1 [Example 4, 2-[3′-(trifluoromethyl)biphenyl-2-yl]acetamide]		66.7	66.7				0	0
CNC(=O)Cc1ccccc1-c1cccc(C(F)(F)F)c1 [Example 5, N-methyl-2-[3′-(trifluoromethyl)biphenyl-2-yl]acetamide]		100	66.7				0	33.3
NC(=O)Cc1ccccc1-c1ccccc1C(F)(F)F [Example 6]		100	33.3				0	
CNC(=O)Cc1ccccc1-c1ccccc1C(F)(F)F [Example 7, N-methyl-2-[2′-(trifluoromethyl)biphenyl-2-yl]acetamide]		100	66.7				66.7	0
CCNC(=O)Cc1ccccc1-c1ccccc1C(F)(F)F [Example 8, N-ethyl-2-[2′-(trilluoromethyl)biphenyl-2-yl]acetamide]		100	66.7				0	0
CN(C)C(=O)Cc1ccccc1-c1ccccc1C(F)(F)F [Example 9]		33.3	66.7					0
NC(=O)Cc1ccccc1-c1ccc(Cl)cc1 [Example 10]		100	33.3				33.3	
CNC(=O)Cc1ccccc1-c1ccc(Cl)cc1 [Example 11]		100	33.3				0	
CN(C)C(=O)Cc1ccccc1-c1ccc(Cl)cc1 [Example 12]		100	33.3				0	
CSc1cccc(-c2ccccc2CC(N)=O)c1 [Example 94]			33.3					
